Reference: PubChem BioAssay (NCI)
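Step 1: Grow cells in 96-well plates. Step 2: Expose to compound for 48 hours at 5 concentrations. Step 3: Interpolate endpoints linearly; if unreached, use highest concentration. TGI marks complete inhibition of growth.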

Assays:
Assay in all cases: inhibition of tumour cell growth, NCI panel, 48 h
[1] = system: 786-0 renal
[2] = system: A549 NSCLC
[3] = system: CAKI-1 renal
[4] = system: CCRF-CEM leukemia
[5] = system: COLO 205 colon
[6] = system: DLD-1 colon
[7] = system: DMS 114 small cell lung
[8] = system: DMS 273 small cell lung
[9] = system: EKVX NSCLC
[10] = system: HCC-2998 colon
[11] = system: HCT-116 colon
[12] = system: HCT-15 colon
[13] = system: HOP-62 NSCLC
[14] = system: HT29 colon
[15] = system: IGROV1 ovarian
[16] = system: K-562 leukemia
[17] = system: KM12 colon
[18] = system: KM20L2 colon
[19] = system: LOX IMVI melanoma
[20] = system: LXFL 529 NSCLC
[21] = system: M14 melanoma
[22] = system: M19-MEL melanoma
[23] = system: MALME-3M melanoma
[24] = system: MOLT-4 leukemia
[25] = system: NCI-H226 lung
[26] = system: NCI-H23 lung
[27] = system: NCI-H460 lung
[28] = system: NCI-H522 lung
[29] = system: OVCAR-3 ovarian
[30] = system: OVCAR-4 ovarian
[31] = system: OVCAR-5 ovarian
[32] = system: OVCAR-8 ovarian
[33] = system: RPMI-8226 leukemia
[34] = system: SF-268 CNS
[35] = system: SF-295 CNS
[36] = system: SF-539 CNS
[37] = system: SK-MEL-2 melanoma
[38] = system: SK-MEL-28 melanoma
[39] = system: SK-MEL-5 melanoma
[40] = system: SK-OV-3 ovarian
[41] = system: SN12C renal
[42] = system: SNB-19 CNS
[43] = system: SNB-75 CNS
[44] = system: SNB-78 CNS
[45] = system: SR leukemia
[46] = system: SW-620 colon
[47] = system: U251 CNS
[48] = system: UACC-257 melanoma
[49] = system: UACC-62 melanoma
[50] = system: UO-31 renal
[51] = system: XF 498 CNS
[52] = system: A498 renal
[53] = system: ACHN renal
[54] = system: HL-60(TB) leukemia
[55] = system: HOP-92 NSCLC
[56] = system: RXF 393 renal
[57] = system: TK-10 renal

SMILES: CC1(C)CC(/C=C2/OC(=O)c3ccccc32)=C(C(N)=O)C(=O)O1
- TGI [1]: > 100 µM
- TGI [2]: > 100 µM
- TGI [3]: > 100 µM
- TGI [4]: > 100 µM
- TGI [5]: > 100 µM
- TGI [6]: > 100 µM
- TGI [7]: > 100 µM
- TGI [8]: > 100 µM
- TGI [9]: > 100 µM
- TGI [10]: > 100 µM
- TGI [11]: > 100 µM
- TGI [12]: > 100 µM
- TGI [13]: > 100 µM
- TGI [14]: > 100 µM
- TGI [15]: > 100 µM
- TGI [16]: > 100 µM
- TGI [17]: > 100 µM
- TGI [18]: > 100 µM
- TGI [19]: > 100 µM
- TGI [20]: > 100 µM
- TGI [21]: > 100 µM
- TGI [22]: > 100 µM
- TGI [23]: > 100 µM
- TGI [24]: > 100 µM
- TGI [25]: > 100 µM
- TGI [26]: > 100 µM
- TGI [27]: > 100 µM
- TGI [28]: > 100 µM
- TGI [29]: > 100 µM
- TGI [30]: > 100 µM
- TGI [31]: > 100 µM
- TGI [32]: > 100 µM
- TGI [33]: > 100 µM
- TGI [34]: > 100 µM
- TGI [35]: > 100 µM
- TGI [36]: > 100 µM
- TGI [37]: > 100 µM
- TGI [38]: > 100 µM
- TGI [39]: > 100 µM
- TGI [40]: > 100 µM
- TGI [41]: > 100 µM
- TGI [42]: > 100 µM
- TGI [43]: > 100 µM
- TGI [44]: > 100 µM
- TGI [45]: > 100 µM
- TGI [46]: > 100 µM
- TGI [47]: > 100 µM
- TGI [48]: > 100 µM
- TGI [49]: > 100 µM
- TGI [50]: > 100 µM
- TGI [51]: > 100 µM

SMILES: CC12C=C[C@]3(CC[C@@H]4[C@@](C)(CO)CCC[C@]4(C)C3CC1)C2 (some centres not stated)
- TGI [1]: 30 µM
- TGI [52]: 37.7 µM
- TGI [2]: 36.7 µM
- TGI [53]: 32 µM
- TGI [3]: 26.2 µM
- TGI [4]: 46.9 µM
- TGI [5]: 30.6 µM
- TGI [7]: 31.7 µM
- TGI [8]: 29.6 µM
- TGI [9]: > 55.8 µM
- TGI [11]: 31.9 µM
- TGI [12]: 31.1 µM
- TGI [54]: 36.8 µM
- TGI [13]: 19.9 µM
- TGI [55]: > 65 µM
- TGI [14]: 32.2 µM
- TGI [15]: 33 µM
- TGI [16]: 37.5 µM
- TGI [17]: > 64 µM
- TGI [18]: 1.68 µM
- TGI [19]: 30.7 µM
- TGI [20]: 30.8 µM
- TGI [21]: 29.9 µM
- TGI [22]: 35.7 µM
- TGI [23]: 47.6 µM
- TGI [24]: > 60.4 µM
- TGI [25]: 14.4 µM
- TGI [26]: 33.4 µM
- TGI [27]: 40.1 µM
- TGI [28]: 16.6 µM
- TGI [29]: 33.2 µM
- TGI [30]: 26.7 µM
- TGI [31]: 10.6 µM
- TGI [32]: 41.2 µM
- TGI [33]: 41.6 µM
- TGI [56]: 27.3 µM
- TGI [34]: 35.4 µM
- TGI [35]: 34.1 µM
- TGI [36]: 30.5 µM
- TGI [37]: 43.2 µM
- TGI [38]: 35.6 µM
- TGI [40]: 33.2 µM
- TGI [41]: 34.4 µM
- TGI [42]: 36.2 µM
- TGI [44]: 36.7 µM
- TGI [45]: 37 µM
- TGI [46]: 33.8 µM
- TGI [57]: 34.7 µM
- TGI [47]: 30.9 µM
- TGI [48]: 33.6 µM
- TGI [49]: 29.3 µM
- TGI [50]: 32.2 µM
- TGI [51]: 35.3 µM

SMILES: NC(N)=NS(=O)(=O)c1ccc(NC(=O)c2cccc3cc4ccccc4nc23)cc1
- TGI [1]: > 100 µM
- TGI [52]: > 100 µM
- TGI [2]: > 100 µM
- TGI [53]: > 100 µM
- TGI [3]: > 100 µM
- TGI [4]: > 100 µM
- TGI [5]: > 100 µM
- TGI [6]: > 100 µM
- TGI [7]: > 100 µM
- TGI [8]: > 100 µM
- TGI [9]: > 100 µM
- TGI [11]: > 100 µM
- TGI [12]: > 100 µM
- TGI [13]: > 100 µM
- TGI [14]: > 100 µM
- TGI [15]: > 100 µM
- TGI [16]: > 100 µM
- TGI [17]: > 100 µM
- TGI [18]: > 100 µM
- TGI [19]: > 100 µM
- TGI [20]: > 100 µM
- TGI [21]: > 100 µM
- TGI [22]: > 100 µM
- TGI [23]: > 100 µM
- TGI [24]: > 100 µM
- TGI [25]: > 100 µM
- TGI [26]: > 100 µM
- TGI [27]: > 100 µM
- TGI [28]: > 100 µM
- TGI [29]: > 100 µM
- TGI [30]: 85.7 µM
- TGI [31]: > 100 µM
- TGI [32]: > 100 µM
- TGI [33]: > 100 µM
- TGI [56]: > 100 µM
- TGI [34]: > 100 µM
- TGI [35]: > 100 µM
- TGI [36]: > 100 µM
- TGI [37]: > 100 µM
- TGI [38]: > 100 µM
- TGI [39]: > 100 µM
- TGI [40]: > 100 µM
- TGI [41]: > 100 µM
- TGI [42]: 31.8 µM
- TGI [43]: > 100 µM
- TGI [44]: > 100 µM
- TGI [46]: > 100 µM
- TGI [57]: > 100 µM
- TGI [47]: > 100 µM
- TGI [48]: > 100 µM
- TGI [49]: > 100 µM
- TGI [50]: > 100 µM
- TGI [51]: > 100 µM
